ChEMBL document CHEMBL1201862, “PubChem BioAssay data set” (2004)
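Values below derive from 48-hour exposures of cells grown in 96-well plates, with endpoints linearly interpolated between the two concentrations bracketing the appropriate inhibition level. GI50 marks 50% less growth.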 Activity calls are given as the source filed them. Cut-off read from the data, not from the text of the source: active = GI50 up to about 1.1 µM and inactive = higher.

Columns and labels:
Test in all cases: inhibition of tumour cell growth, NCI panel, 48 h
786-0 = tested on: 786-0
BT-549 = tested on: BT-549
CAKI-1 = tested on: CAKI-1
CCRF-CEM = tested on: CCRF-CEM
HCT-15 = tested on: HCT-15
HOP-92 = tested on: HOP-92
M14 = tested on: M14
MCF7 = tested on: MCF7
MDA-MB-231 = tested on: MDA-MB-231
MDA-MB-435 = tested on: MDA-MB-435
Malme-3M = tested on: Malme-3M
NCI-H460 = tested on: NCI-H460
OVCAR-3 = tested on: OVCAR-3
OVCAR-8 = tested on: OVCAR-8
PC-3 = tested on: PC-3
SF-268 = tested on: SF-268
SF-539 = tested on: SF-539
SK-MEL-28 = tested on: SK-MEL-28
SN12C = tested on: SN12C
UO-31 = tested on: UO-31

Compound: COc1cccc(Nc2nc(N)nc(N)c2N)c1
- GI50 (786-0): 39.7 µM (inactive)
- GI50 (BT-549): 35.7 µM (inactive)
- GI50 (CAKI-1): 11.8 µM (inactive)
- GI50 (CCRF-CEM): 18.5 µM (inactive)
- GI50 (HCT-15): 36.9 µM
- GI50 (HOP-92): > 100 µM (inactive)
- GI50 (M14): > 100 µM (inactive)
- GI50 (MCF7): 30.4 µM (inactive)
- GI50 (MDA-MB-231): 22.1 µM (inactive)
- GI50 (MDA-MB-435): 39.7 µM (inactive)
- GI50 (Malme-3M): > 100 µM (inactive)
- GI50 (NCI-H460): 20 µM (inactive)
- GI50 (OVCAR-3): 42.8 µM (inactive)
- GI50 (OVCAR-8): 65.2 µM (inactive)
- GI50 (PC-3): 99.8 µM (inactive)
- GI50 (SF-268): > 100 µM (inactive)
- GI50 (SF-539): 40.8 µM (inactive)
- GI50 (SK-MEL-28): > 100 µM (inactive)
- GI50 (SN12C): 20.1 µM (inactive)
- GI50 (UO-31): > 100 µM (inactive)

Compound: Oc1c(C(O)(c2ccccc2)c2ccc3ccccc3c2O)ccc2ccccc12
- GI50 (786-0): 20 µM (inactive)
- GI50 (BT-549): 17.7 µM (inactive)
- GI50 (CAKI-1): 15 µM (inactive)
- GI50 (CCRF-CEM): 0.597 µM (active)
- GI50 (HCT-15): 8.77 µM
- GI50 (HOP-92): 9.1 µM (inactive)
- GI50 (M14): 15.5 µM (inactive)
- GI50 (MCF7): 2.93 µM (inactive)
- GI50 (MDA-MB-231): 13.6 µM (inactive)
- GI50 (MDA-MB-435): 14.1 µM (inactive)
- GI50 (Malme-3M): 11.8 µM (inactive)
- GI50 (NCI-H460): 8.91 µM (inactive)
- GI50 (OVCAR-3): 6.47 µM (inactive)
- GI50 (OVCAR-8): 11.3 µM (inactive)
- GI50 (PC-3): 8.26 µM (inactive)
- GI50 (SF-268): 12.2 µM (inactive)
- GI50 (SF-539): 19 µM (inactive)
- GI50 (SK-MEL-28): 14.7 µM (inactive)
- GI50 (SN12C): 7.74 µM (inactive)
- GI50 (UO-31): 11.2 µM (inactive)

Compound: CCOc1ccc(Nc2nc(N)nc(N)c2N)cc1
- GI50 (786-0): 22.3 µM (inactive)
- GI50 (BT-549): 23.2 µM (inactive)
- GI50 (CAKI-1): 28.6 µM (inactive)
- GI50 (CCRF-CEM): 20.2 µM (inactive)
- GI50 (HCT-15): 38.9 µM
- GI50 (HOP-92): 50.9 µM (inactive)
- GI50 (M14): 47.2 µM (inactive)
- GI50 (MCF7): 18.8 µM (inactive)
- GI50 (MDA-MB-231): 31.8 µM (inactive)
- GI50 (MDA-MB-435): 25.1 µM (inactive)
- GI50 (Malme-3M): 12.6 µM (inactive)
- GI50 (NCI-H460): 29.1 µM (inactive)
- GI50 (OVCAR-3): 30.5 µM (inactive)
- GI50 (OVCAR-8): 45.2 µM (inactive)
- GI50 (PC-3): 45.3 µM (inactive)
- GI50 (SF-268): 15.6 µM (inactive)
- GI50 (SF-539): 21.7 µM (inactive)
- GI50 (SK-MEL-28): > 100 µM (inactive)
- GI50 (SN12C): > 10 µM (inactive)
- GI50 (UO-31): 11 µM (inactive)

Compound: COc1cc2c(c(OC)c1OC)-c1cccc(=O)cc1C(NC(C)=O)CC2 (stereo not given)
- GI50 (786-0): 0.136 µM (active)
- GI50 (BT-549): 0.437 µM (active)
- GI50 (CAKI-1): 0.211 µM (active)
- GI50 (CCRF-CEM): 0.0414 µM (active)
- GI50 (HCT-15): 0.612 µM
- GI50 (HOP-92): 0.0863 µM (active)
- GI50 (M14): 0.0621 µM (active)
- GI50 (MCF7): < 0.01 µM (active)
- GI50 (MDA-MB-231): 0.139 µM (active)
- GI50 (MDA-MB-435): < 0.01 µM (active)
- GI50 (Malme-3M): 0.0867 µM (active)
- GI50 (NCI-H460): 0.123 µM (active)
- GI50 (OVCAR-3): 0.0463 µM (active)
- GI50 (OVCAR-8): 0.2 µM (active)
- GI50 (PC-3): 0.0152 µM (active)
- GI50 (SF-268): 0.128 µM (active)
- GI50 (SF-539): 0.042 µM (active)
- GI50 (SK-MEL-28): 2.15 µM (inactive)
- GI50 (SN12C): 0.339 µM (active)
- GI50 (UO-31): 4.93 µM (inactive)

Compound: Nc1ccc2c(c1)N(C(=O)CCCC(=O)N1CC(CCl)c3ccc(N)cc31)CC2CCl (stereo not given)
- GI50 (786-0): 0.169 µM (active)
- GI50 (BT-549): 0.719 µM (active)
- GI50 (CAKI-1): 0.141 µM (active)
- GI50 (CCRF-CEM): 0.185 µM (active)
- GI50 (HCT-15): 1.24 µM
- GI50 (HOP-92): 1.97 µM (inactive)
- GI50 (M14): 0.604 µM (active)
- GI50 (MCF7): 0.333 µM (active)
- GI50 (MDA-MB-231): 1.43 µM (inactive)
- GI50 (MDA-MB-435): 0.953 µM (active)
- GI50 (Malme-3M): 0.0883 µM (active)
- GI50 (NCI-H460): 0.716 µM (active)
- GI50 (OVCAR-3): 0.971 µM (active)
- GI50 (OVCAR-8): 0.466 µM (active)
- GI50 (PC-3): 1.08 µM (active)
- GI50 (SF-268): 0.115 µM (active)
- GI50 (SF-539): 0.461 µM (active)
- GI50 (SK-MEL-28): 1.23 µM (inactive)
- GI50 (SN12C): 0.469 µM (active)
- GI50 (UO-31): 0.561 µM (active)

Compound: NCCCCc1cc(O)c2c(c1O)C(=O)c1ccccc1C2=O
- GI50 (786-0): 6 µM (inactive)
- GI50 (BT-549): 22.2 µM (inactive)
- GI50 (CAKI-1): 12.6 µM (inactive)
- GI50 (CCRF-CEM): 3.77 µM (inactive)
- GI50 (HCT-15): 9.25 µM
- GI50 (HOP-92): 14.4 µM (inactive)
- GI50 (M14): 16.5 µM (inactive)
- GI50 (MCF7): 5.41 µM (inactive)
- GI50 (MDA-MB-231): 9.1 µM (inactive)
- GI50 (MDA-MB-435): 22.6 µM (inactive)
- GI50 (Malme-3M): 14.7 µM (inactive)
- GI50 (NCI-H460): 10.5 µM (inactive)
- GI50 (OVCAR-3): 6.75 µM (inactive)
- GI50 (OVCAR-8): 5.09 µM (inactive)
- GI50 (PC-3): 10.4 µM (inactive)
- GI50 (SF-268): 13.8 µM (inactive)
- GI50 (SF-539): 6.75 µM (inactive)
- GI50 (SK-MEL-28): 17.5 µM (inactive)
- GI50 (SN12C): 10.6 µM (inactive)
- GI50 (UO-31): 6.73 µM (inactive)

Compound: CC(C)=CCC[C@@H](C)C1=C(O)C(=O)C(C)=C(N[C@H](C)c2ccccc2)C1=O
- GI50 (786-0): 3.66 µM (inactive)
- GI50 (BT-549): 7.16 µM (inactive)
- GI50 (CAKI-1): 4.11 µM (inactive)
- GI50 (CCRF-CEM): 0.923 µM (active)
- GI50 (HCT-15): 2.67 µM
- GI50 (HOP-92): 6.14 µM (inactive)
- GI50 (M14): 5.41 µM (inactive)
- GI50 (MCF7): 3.64 µM (inactive)
- GI50 (MDA-MB-231): 7.35 µM (inactive)
- GI50 (MDA-MB-435): 7.1 µM (inactive)
- GI50 (Malme-3M): 3.24 µM (inactive)
- GI50 (NCI-H460): 2.75 µM (inactive)
- GI50 (OVCAR-3): 5.36 µM (inactive)
- GI50 (OVCAR-8): 2.58 µM (inactive)
- GI50 (PC-3): 10.9 µM (inactive)
- GI50 (SF-268): 7.01 µM (inactive)
- GI50 (SF-539): 3.11 µM (inactive)
- GI50 (SK-MEL-28): 6.76 µM (inactive)
- GI50 (SN12C): 6.55 µM (inactive)
- GI50 (UO-31): 4.27 µM (inactive)
